Experimental data taken from PubChem BioAssay AID1259411 (Chemical Carcinogenesis Research Information System (CCRIS), 2018).
The source made the active and inactive calls. The rule behind the calls is not given here.

System: rodent carcinogenicity bioassays, tumor incidence
Assay: CCRIS carcinogenicity studies
Procedure, shortened: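 Archive of carcinogenicity, mutagenicity, tumor promotion and tumor inhibition results drawn from journals, NCI reports and other sources, expert-reviewed; covers 1985-2011 and is no longer updated.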

Compound: CCN(CC)N=O
- carcinogen call (Species: MOUSE, Strain/Sex: B6C3F1/MALE, Route: INTRAPERITONEAL, Dose: 0, 12 UG ON DAYS 0, 3, 9 AND 15 (STUDY DURATION: 132 WK), Tumor Site: Type of Lesion: LIVER: TUMORS): active; positive
- carcinogen call (Species: MOUSE, Strain/Sex: B6C3F2 (BRACHYMORPHIC)/MALE, Route: INTRAPERITONEAL, Dose: 0, 0.02, 0.07 UMOL/G BW IN 10 µL/G BW TRIOCTANOIN ONCE AT 12 D OF AGE (STUDY DURATION: 9 MO), Dose: 0, 0.02, 0.07 UMOL/G BW IN 10 µL/G BW TRIOCTANOIN ONCE AT 12 D OF AGE (STUDY DURATION: 9 MO), Tumor Site: Type of Lesion: LIVER: HEPATOMA): active; positive
- carcinogen call (Species: MOUSE, Strain/Sex: BALB/C/FEMALE, Route: INTRAPERITONEAL, Dose: 0, 15, 90 MG/KG ONCE (STUDY DURATION: 18 MONTHS), Dose: 0, 15, 90 MG/KG ONCE (STUDY DURATION: 18 MONTHS), Tumor Site: Type of Lesion: LUNG: TUMOR): active; positive
- carcinogen call (Species: MOUSE, Strain/Sex: C3AF1/FEMALE, Route: INTRAPERITONEAL, Dose: 0, 1.5, 3 UG IN 0.01 ML TRIOCTANOIN/G BW INITIAL DOSE GIVEN ON DAY 1 OF AGE AND 3 SUBSEQUENT DOSES GIVEN 3, 9 AND 15 DAY, Dose: 0, 1.5, 3 UG IN 0.01 ML TRIOCTANOIN/G BW INITIAL DOSE GIVEN ON DAY 1 OF AGE AND 3 SUBSEQUENT DOSES GIVEN 3, 9 AND 15 DAY, Tumor Site: Type of Lesion: LIVER: ADENOMA, CARCINOMA, LUNG: TUMORS): active; positive
- carcinogen call (Species: MOUSE, Strain/Sex: C3AF1/FEMALE, Route: INTRAPERITONEAL, Dose: 0, 1.5, 3 UG IN 0.01 ML TRIOCTANOIN/G BW INITIAL DOSE GIVEN ON DAY 15 OF AGE AND 3 SUBSEQUENT DOSES GIVEN 3, 9 AND 15 DA, Dose: 0, 1.5, 3 UG IN 0.01 ML TRIOCTANOIN/G BW INITIAL DOSE GIVEN ON DAY 15 OF AGE AND 3 SUBSEQUENT DOSES GIVEN 3, 9 AND 15 DA, Tumor Site: Type of Lesion: LIVER: ADENOMA, CARCINOMA, LUNG: TUMORS): active; positive
- carcinogen call (Species: MOUSE, Strain/Sex: C3AF1/FEMALE, Route: INTRAPERITONEAL, Dose: 0, 1.5, 3 UG IN 0.01 ML TRIOCTANOIN/G BW INITIAL DOSE GIVEN ON DAY 42 OF AGE AND 3 SUBSEQUENT DOSES GIVEN 3, 9 AND 15 DA, Dose: 0, 1.5, 3 UG IN 0.01 ML TRIOCTANOIN/G BW INITIAL DOSE GIVEN ON DAY 42 OF AGE AND 3 SUBSEQUENT DOSES GIVEN 3, 9 AND 15 DA, Tumor Site: Type of Lesion: LUNG: TUMORS): active; positive
- carcinogen call (Species: MOUSE, Strain/Sex: C3AF1/MALE, Route: INTRAPERITONEAL, Dose: 0, 1.5, 3 UG IN 0.01 ML TRIOCTANOIN/G BW INITIAL DOSE GIVEN ON DAY 1 OF AGE AND 3 SUBSEQUENT DOSES GIVEN 3, 9 AND 15 DAY, Dose: 0, 1.5, 3 UG IN 0.01 ML TRIOCTANOIN/G BW INITIAL DOSE GIVEN ON DAY 1 OF AGE AND 3 SUBSEQUENT DOSES GIVEN 3, 9 AND 15 DAY, Tumor Site: Type of Lesion: LIVER: ADENOMA, CARCINOMA, LUNG: TUMORS): active; positive
- carcinogen call (Species: MOUSE, Strain/Sex: C3AF1/MALE, Route: INTRAPERITONEAL, Dose: 0, 1.5, 3 UG IN 0.01 ML TRIOCTANOIN/G BW INITIAL DOSE GIVEN ON DAY 15 OF AGE AND 3 SUBSEQUENT DOSES GIVEN 3, 9 AND 15 DA, Dose: 0, 1.5, 3 UG IN 0.01 ML TRIOCTANOIN/G BW INITIAL DOSE GIVEN ON DAY 15 OF AGE AND 3 SUBSEQUENT DOSES GIVEN 3, 9 AND 15 DA, Tumor Site: Type of Lesion: LIVER: ADENOMA, CARCINOMA, LUNG: TUMORS): active; positive
- carcinogen call (Species: MOUSE, Strain/Sex: C3AF1/MALE, Route: INTRAPERITONEAL, Dose: 0, 1.5, 3 UG IN 0.01 ML TRIOCTANOIN/G BW INITIAL DOSE GIVEN ON DAY 42 OF AGE AND 3 SUBSEQUENT DOSES GIVEN 3, 9 AND 15 DA, Dose: 0, 1.5, 3 UG IN 0.01 ML TRIOCTANOIN/G BW INITIAL DOSE GIVEN ON DAY 42 OF AGE AND 3 SUBSEQUENT DOSES GIVEN 3, 9 AND 15 DA, Tumor Site: Type of Lesion: LIVER: ADENOMA, CARCINOMA, LUNG: TUMORS): active; positive
- carcinogen call (Species: MOUSE, Strain/Sex: C3H/FEMALE, Route: TRANSPLACENTAL, Dose: 0, 0.5 MMOL IN 0.9% STERILE SALINE (51 MG/KG) ON DAY 16 OF GESTATION (STUDY DURATION: LIFETIME)): inactive; negative
- carcinogen call (Species: MOUSE, Strain/Sex: C3H/FEMALE, Route: TRANSPLACENTAL, Dose: 0, 0.5 MMOL IN 0.9% STERILE SALINE (51 MG/KG) ON DAY 19 OF GESTATION (STUDY DURATION: LIFETIME), Tumor Site: Type of Lesion: LIVER: CARCINOMA, LUNG: TUMOR): active; positive
- carcinogen call (Species: MOUSE, Strain/Sex: C3H/MALE, Route: INTRAPERITONEAL, Dose: 0, 12 UG ON DAYS 0, 3, 9 AND 15 (STUDY DURATION: 132 WK), Tumor Site: Type of Lesion: LIVER: TUMORS): active; positive
- carcinogen call (Species: MOUSE, Strain/Sex: C3H/MALE, Route: TRANSPLACENTAL, Dose: 0, 0.5 MMOL IN 0.9% STERILE SALINE (51 MG/KG) ON DAY 16 OF GESTATION (STUDY DURATION: LIFETIME)): inactive; negative
- carcinogen call (Species: MOUSE, Strain/Sex: C3H/MALE, Route: TRANSPLACENTAL, Dose: 0, 0.5 MMOL IN 0.9% STERILE SALINE (51 MG/KG) ON DAY 19 OF GESTATION (STUDY DURATION: LIFETIME), Tumor Site: Type of Lesion: LIVER: CARCINOMA, LUNG: CARCINOMA): active; positive
- carcinogen call (Species: MOUSE, Strain/Sex: C57BL/6J/FEMALE, Route: INTRAPERITONEAL, Dose: 0, 15, 90 MG/KG ONCE (STUDY DURATION: 18 MONTHS), Dose: 0, 15, 90 MG/KG ONCE (STUDY DURATION: 18 MONTHS), Tumor Site: Type of Lesion: LUNG: TUMOR): active; positive
- carcinogen call (Species: MOUSE, Strain/Sex: C57BL/MALE, Route: INTRAPERITONEAL, Dose: 0, 12 UG ON DAYS 0, 3, 9 AND 15 (STUDY DURATION: 132 WK)): inactive; negative
- carcinogen call (Species: MOUSE, Strain/Sex: EU-PIM-1/FEMALE, Route: GAVAGE, Dose: 0, 1, 3 MG/KG 1/D FOR 38 WK (STUDY DURATION: 38 WK), Dose: 0, 1, 3 MG/KG 1/D FOR 38 WK (STUDY DURATION: 38 WK), Tumor Site: Type of Lesion: LIVER: HEMANGIOSARCOMA, LYMPHATIC SYSTEM: LYMPHOMA): active; positive
- carcinogen call (Species: MOUSE, Strain/Sex: EU-PIM-1/MALE, Route: GAVAGE, Dose: 0, 1, 3 MG/KG 1/D FOR 38 WK (STUDY DURATION: 38 WK), Dose: 0, 1, 3 MG/KG 1/D FOR 38 WK (STUDY DURATION: 38 WK), Tumor Site: Type of Lesion: LIVER: HEMANGIOSARCOMA): active; positive
- carcinogen call (Species: MOUSE, Strain/Sex: SWISS/MALE, Route: INTRAGASTRIC, Dose: 0, 80, 40 MG/KG IN NORMAL SALINE ADMINISTERED WITH A 4 WK GAP BETWEEN EACH DOSE, (STUDY DURATION: 24 WK), Dose: 0, 80, 40 MG/KG IN NORMAL SALINE ADMINISTERED WITH A 4 WK GAP BETWEEN EACH DOSE, (STUDY DURATION: 24 WK), Tumor Site: Type of Lesion: LUNG: TUMOR): active; positive
- carcinogen call (Species: MOUSE, Strain/Sex: SWR/FEMALE, Route: INTRAPERITONEAL, Dose: 0, 15, 90 MG/KG ONCE (STUDY DURATION: 18 MONTHS), Dose: 0, 15, 90 MG/KG ONCE (STUDY DURATION: 18 MONTHS), Tumor Site: Type of Lesion: LUNG: TUMOR): active; positive
- carcinogen call (Species: RABBIT, Route: ORAL, Tumor Site: Type of Lesion: LIVER): active; positive
- carcinogen call (Species: RAT, Route: INTRAPERITONEAL, RECTAL, Tumor Site: Type of Lesion: LIVER): active; positive
- carcinogen call (Species: RAT, Route: INTRAVENOUS, Tumor Site: Type of Lesion: KIDNEY): active; positive
- carcinogen call (Species: RAT, Route: ORAL, Tumor Site: Type of Lesion: LIVER, ESOPHAGUS, KIDNEY, NASAL CAVITY, Tumor Site: Type of Lesion: LIVER, ESOPHAGUS, KIDNEY, NASAL CAVITY): active; positive
- carcinogen call (Species: RAT, Strain/Sex: F344/FEMALE, Route: INTRAVESICULAR, Dose: 0, 2.5 MG IN 0.2 ML ETHANOL: DEIONIZED WATER (1:3) 2/WK FOR 25 WK (TOTAL DOSE 1.2 MMOL) (STUDY DURATION: LIFESPAN), Tumor Site: Type of Lesion: LIVER: HEMANGIOSARCOMA, ESOPHAGUS: TUMOR): active; positive
- carcinogen call (Species: RAT, Strain/Sex: F344/FEMALE, Route: ORAL, Dose: 0, 18 MG/L IN DEIONIZED DRINKING WATER DURING WK 1, 5, AND 9 (STUDY DURATION: 121 WK), Tumor Site: Type of Lesion: HEMATOPOIETIC SYSTEM: LEUKEMIA): active; positive
- carcinogen call (Species: RAT, Strain/Sex: WISTAR/MALE, Route: ORAL, Dose: 0, 0.033, 0.066, 0.132, 0.264, 0.528, 1.056, 1.584, 2.112, 2.640, 3.168, 4.224, 5.280, 6.336, 8.448, 16.896 PPM IN DRINK, Dose: 0, 0.033, 0.066, 0.132, 0.264, 0.528, 1.056, 1.584, 2.112, 2.640, 3.168, 4.224, 5.280, 6.336, 8.448, 16.896 PPM IN DRINK, Tumor Site: Type of Lesion: ESOPHAGUS: TUMOR, LIVER HEPATOCELLULAR CARCINOMA): active; positive
